Consider 15 molecules from patent US20110182850A1, “ORGANIC COMPOUNDS AND THEIR USES” (priority 2009, published 2011).

As usually defined, the IC50 is the midpoint of a concentration-inhibition curve.

In one experiment the target is T1, HCV NS3-4A serine protease (full-length NS3-4A protein, genotype 1a, strain HCV-1) (Hepatitis C virus genotype 1a, UniProt P26664).
T1 construct: using the full-length NS3-4A protein (genotype 1a, strain HCV-1)
T1 sequence (P26664 1658-1711): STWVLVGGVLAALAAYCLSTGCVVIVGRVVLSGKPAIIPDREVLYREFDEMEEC
T1 sequence (P26664 1027-1657): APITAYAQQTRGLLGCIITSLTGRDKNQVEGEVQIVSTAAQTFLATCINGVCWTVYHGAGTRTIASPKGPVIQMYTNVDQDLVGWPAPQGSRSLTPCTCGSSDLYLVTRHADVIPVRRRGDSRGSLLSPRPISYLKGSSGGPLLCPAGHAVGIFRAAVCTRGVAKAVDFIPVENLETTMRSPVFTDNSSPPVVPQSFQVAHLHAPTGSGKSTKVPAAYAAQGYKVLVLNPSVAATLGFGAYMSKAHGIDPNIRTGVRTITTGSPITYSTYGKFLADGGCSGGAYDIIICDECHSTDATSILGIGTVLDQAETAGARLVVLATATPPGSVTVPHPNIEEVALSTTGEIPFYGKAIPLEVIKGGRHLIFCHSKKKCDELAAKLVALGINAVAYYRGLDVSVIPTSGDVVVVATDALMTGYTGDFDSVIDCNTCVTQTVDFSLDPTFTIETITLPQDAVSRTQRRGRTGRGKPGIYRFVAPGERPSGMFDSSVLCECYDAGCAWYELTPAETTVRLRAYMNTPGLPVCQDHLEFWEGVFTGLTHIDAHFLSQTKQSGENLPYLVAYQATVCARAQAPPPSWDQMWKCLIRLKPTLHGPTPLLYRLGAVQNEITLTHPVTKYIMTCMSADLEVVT
The experiment can be described thus: HCV NS3-4A protease assay. The class given is biochemical. Particulars: Protease IC50. Here is the method: The inhibitory activity of certain compounds of Table A against HCV NS3-4A serine protease is determined in a homogenous assay using the full-length NS3-4A protein (genotype 1a, strain HCV-1) and a commercially available internally-quenched fluorogenic peptide substrate as described by Taliani, M., et al. 1996 Anal. Biochem. 240:60-67, which is incorporated by reference in its entirety.
Regarding `C=C[C@@H]1C[C@]1(NC(=O)[C@@H]1C[C@@]2(CN1C(=O)[C@@H](NC(=O)[C@@H](NC(=O)N1CCN(C)CC1)C(C)(C)C)C(C)(C)C)C(C)(C)C21CCC1)C(=O)NS(=O)(=O)C1CC1` [Compound 55, (5R,8S)-N-{(1R,2S)-1-[(cyclopropylsulfonyl)carba-moyl]-2-vinylcyclopropyl}-7-[(2S)-2-{[(2S)-3,3-dimethyl-2-{[(4-methylpiperazin-1-yl)carbonyl]amino}butanoyl]amino}-3,3-dimethylbutanoyl]-10,10-dimethyl-7-azadispiro[3.0.4.1]decane-8-carboxamide], half-maximal inhibition (IC50) required 25 nM.
On the same count and under the same terms, the figure for `C=C[C@@H]1C[C@]1(NC(=O)[C@@H]1C[C@@]2(CN1C(=O)[C@@H](NC(=O)[C@@H](NC(=O)N(C)C)C(C)(C)C)C(C)(C)C)C(C)(C)C21CCC1)C(=O)NS(=O)(=O)C1CC1` [Compound 56, (5R,8S)-N-{(1R,2S)-1-[(cyclopropylsulfonyl)carba-moyl]-2-vinylcyclopropyl}-7-[(2S)-2-({(2S)-2-[(dimethylcarbamoyl)amino]-3,3-dimethylbutanoyl}amino)-3,3-dimethylbutanoyl]-10,10-dimethyl-7-azadispiro[3.0.4.1]decane-8-carboxamide] is 50 nM; for `C=C[C@@H]1C[C@]1(NC(=O)[C@@H]1C[C@@]2(CN1C(=O)[C@@H](NC(=O)[C@@H](NC(=O)[C@@H]1CCCCN1C(C)C)C1CCCCC1)C(C)(C)C)C(C)(C)C21CCC1)C(=O)NS(=O)(=O)c1ccccc1` [Compound 61, (5R,8S)-7-[(2S)-2-{[(2S)-2-cyclohexyl-2-({[(2S)-1-isopropylpiperidin-2-yl]carbonyl}amino)acetyl]amino}-3,3-dimethylbutanoyl]-10,10-dimethyl-N-{(1R,2S)-1-[(phenylsulfonyl)carbamoyl]-2-vinylcyclopropyl}-7-azadispiro[3.0.4.1]decane-8-carboxamide] it is 1.5 nM.
On to `C=C[C@@H]1C[C@]1(NC(=O)[C@@H]1C[C@@]2(CN1C(=O)[C@@H](NC(=O)[C@@H](NC(=O)[C@@H]1CCCN1C(C)C)C1CCCCC1)C(C)(C)C)C(C)(C)C21CCC1)C(=O)NS(=O)(=O)c1ccccc1` [Compound 62, (5R,8S)-7-[(2S)-2-{[(2S)-2-cyclohexyl-2-({[(2S)-1-isopropylpyrrolidin-2-yl]carbonyl}amino)acetyl]amino}-3,3-dimethylbutanoyl]-10,10-dimethyl-N-{(1R,2S)-1-[(phenylsulfonyl)carbamoyl]-2-vinylcyclopropyl}-7-azadispiro[3.0.4.1]decane-8-carboxamide], for which the IC50 stood at 0.7 nM.
As for `C=C[C@@H]1C[C@]1(NC(=O)[C@@H]1C[C@@]2(CN1C(=O)[C@@H](NC(=O)[C@@H](NC(=O)c1cnccn1)C1CCCCC1)C(C)(C)C)C(C)(C)C21CCC1)C(=O)NS(=O)(=O)C1(C)CC1` [Compound 64, (5R,8S)-7-[(2S)-2-({(2S)-2-cyclohexyl-2-[(pyrazin-2-ylcarbonyl)amino]acetyl}amino)-3,3-dimethylbutanoyl]-10,10-dimethyl-N-[(1R,2S)-1-{[(1-methylcyclopropyl)sulfonyl]carbamoyl}-2-vinylcyclopropyl]-7-azadispiro[3.0.4.1]decane-8-carboxamide], half-maximal inhibition (IC50) was put at 1.5 nM.
Consider `C=C[C@@H]1C[C@]1(NC(=O)[C@@H]1C[C@@]2(CN1C(=O)[C@@H](NC(=O)[C@@H](NC(=O)[C@@H]1CCCCN1C(C)C)C1CCCCC1)C(C)(C)C)C(C)(C)C21CCC1)C(=O)NS(=O)(=O)C1(CC)CC1` [Compound 66, (5R,8S)-7-[(2S)-2-{[(2S)-2-cyclohexyl-2-({[(2S)-1-isopropylpiperidin-2-yl]carbonyl}amino)acetyl]amino}-3,3-dimethylbutanoyl]-N-[(1R,2S)-1-{[(1-ethylcyclopropyl)sulfonyl]carbamoyl}-2-vinylcyclopropyl]-10,10-dimethyl-7-azadispiro[3.0.4.1]decane-8-carboxamide], for which the midpoint of inhibition, the IC50, lay at 1.8 nM.
Still for that read-out and setting: the same measure for `C=C[C@@H]1C[C@]1(NC(=O)[C@@H]1C[C@@]2(CN1C(=O)[C@@H](NC(=O)[C@@H](NC(=O)[C@@H]1CCCN1C(C)C)C1CCCCC1)C(C)(C)C)C(C)(C)C21CCC1)C(=O)NS(=O)(=O)C1(C)CC1` [Compound 72, (5R,8S)-7-[(2S)-2-{[(2S)-2-cyclohexyl-2-({[(2S)-1-isopropylpyrrolidin-2-yl]carbonyl}amino)acetyl]amino}-3,3-dimethylbutanoyl]-10,10-dimethyl-N-[(1R,2S)-1-{[(1-methylcyclopropyl)sulfonyl]carbamoyl}-2-vinylcyclopropyl]-7-azadispiro[3.0.4.1]decane-8-carboxamide]: 2 nM; for `C=C[C@@H]1C[C@]1(NC(=O)[C@@H]1C[C@@]2(CN1C(=O)[C@@H](NC(=O)[C@@H](NC(=O)[C@@H]1CCCCN1CC)C1CCCCC1)C(C)(C)C)C(C)(C)C21CCC1)C(=O)NS(=O)(=O)C1(C)CC1` [Compound 73, (5R,8S)-7-[(2S)-2-{[(2S)-2-cyclohexyl-2-({[(2S)-1-ethylpiperidin-2-yl]carbonyl}amino)acetyl]amino}-3,3-dimethylbutanoyl]-10,10-dimethyl-N-[(1R,2S)-1-{[(1-methylcyclopropyl)sulfonyl]carbamoyl}-2-vinylcyclopropyl]-7-azadispiro[3.0.4.1]decane-8-carboxamide]: 3 nM; for `C=C[C@@H]1C[C@]1(NC(=O)[C@@H]1C[C@@]2(CN1C(=O)[C@@H](NC(=O)[C@@H](NC(=O)[C@@H]1CCCCN1C(C)C)C1CCCCC1)C(C)(C)C)C(C)(C)C21CCC1)C(=O)NS(=O)(=O)C(F)(F)F` [Compound 78, (5R,8S)-7-[(2S)-2-{[(2S)-2-cyclohexyl-2-({[(2S)-1-isopropylpiperidin-2-yl]carbonyl}amino)acetyl]amino}-3,3-dimethylbutanoyl]-10,10-dimethyl-N-[(1R,2S)-1-{[(trifluoromethyl)sulfonyl]carbamoyl}-2-vinylcyclopropyl]-7-azadispiro[3.0.4.1]decane-8-carboxamide]: 2.5 nM.
The same measure, in the same setting: the figure for `C=C[C@@H]1C[C@]1(NC(=O)[C@@H]1C[C@@]2(CN1C(=O)[C@@H](NC(=O)[C@@H](NC(=O)[C@@H]1CCCCN1CC)C1CCCCC1)C(C)(C)C)C(C)(C)C21CCC1)C(=O)NS(=O)(=O)C(F)(F)F` [Compound 79, (5R,8S)-7-[(2S)-2-{[(2S)-2-cyclohexyl-2-({[(2S)-1-ethylpiperidin-2-yl]carbonyl}amino)acetyl]amino}-3,3-dimethylbutanoyl]-10,10-dimethyl-N-[(1R,2S)-1-{[(trifluoromethyl)sulfonyl]carbamoyl}-2-vinylcyclopropyl]-7-azadispiro[3.0.4.1]decane-8-carboxamide] is 2 nM.
The molecule `C=C[C@@H]1C[C@]1(NC(=O)[C@@H]1C[C@@]2(CN1C(=O)[C@@H](NC(=O)[C@@H](NC(=O)[C@@H]1CCCCN1C(C)C)C1CCCCC1)C(C)(C)C)C(C)(C)C21CCC1)C(=O)NS(=O)(=O)C1CCCC1` [Compound 80, (5R,8S)-7-[(2S)-2-{[(2S)-2-cyclohexyl-2-({[(2S)-1-isopropylpiperidin-2-yl]carbonyl}amino)acetyl]amino}-3,3-dimethylbutanoyl]-N-{(1R,2S)-1-[(cyclopentylsulfonyl)carbamoyl]-2-vinylcyclopropyl}-10,10-dimethyl-7-azadispiro[3.0.4.1]decane-8-carboxamide] gave an IC50 of 10 nM.

The experiment is the same for the next values; noted with them: read-out: Protease IC50.
Regarding `C=C[C@@H]1C[C@]1(NC(=O)[C@@H]1C[C@@]2(CN1C(=O)[C@@H](NC(=O)[C@@H](NS(=O)(=O)C(C)C)C(C)(C)C)C(C)(C)C)C(C)(C)C21CCC1)C(=O)NS(=O)(=O)C1CC1` [Compound 58, (5R,8S)-N-{(1R,2S)-1-[(cyclopropylsulfonyl)carba-moyl]-2-vinylcyclopropyl}-7-[(2S)-2-({(2S)-2-[(isopropylsulfonyl)amino]-3,3-dimethylbutanoyl}amino)-3,3-dimethylbutanoyl]-10,10-dimethyl-7-azadispiro[3.0.4.1]decane-8-carboxamide], the IC50 stood at 400 nM.
Same read-out and setting: the figure for `C=C[C@@H]1C[C@]1(NC(=O)[C@@H]1C[C@@]2(CN1C(=O)[C@@H](NC(=O)c1coc(CN(C)C)n1)C(C)(C)C)C(C)(C)C21CCC1)C(=O)NS(=O)(=O)C1CC1` [Compound 59, (5R,8S)-N-{(1R,2S)-1-[(cyclopropylsulfonyl)carba-moyl]-2-vinylcyclopropyl}-7-{(2S)-2-[({2-[(dimethylamino)methyl]-1,3-oxazol-4-yl}carbonyl)amino]-3,3-dimethylbutanoyl}-10,10-dimethyl-7-azadispiro[3.0.4.1]decane-8-carboxamide] is 400 nM.
Turning to `C=C[C@@H]1C[C@]1(NC(=O)[C@@H]1C[C@@]2(CN1C(=O)[C@@H](NC(=O)[C@@H](CC(=O)N1CCCCC1)C(C)(C)C)C(C)(C)C)C(C)(C)C21CCC1)C(=O)NS(=O)(=O)C1CC1` [Compound 60, (5R,8S)-N-{(1R,2S)-1-[(cyclopropylsulfonyl)carba-moyl]-2-vinylcyclopropyl}-7-[(2S)-2-{[(2S)-3,3-dimethyl-2-(2-oxo-2-piperidin-1-ylethyl)butanoyl]amino}-3,3-dimethylbutanoyl]-10,10-dimethyl-7-azadispiro[3.0.4.1]decane-8-carboxamide], the IC50 was 200 nM.
Turning to `C=C[C@@H]1C[C@]1(NC(=O)[C@@H]1C[C@@]2(CN1C(=O)[C@@H](NC(=O)[C@@H](CC(=O)N(C)C)C(C)(C)C)C(C)(C)C)C(C)(C)C21CCC1)C(=O)NS(=O)(=O)C1CC1` [Compound 65, (2S)-2-tert-butyl-N1-[(1S)-1-{[(5R,8S)-8-({(1R,2S)-1-[(cyclopropylsulfonyl)carba-moyl]-2-vinylcyclopropyl}carbamoyl)-10,10-dimethyl-7-azadispiro[3.0.4.1]dec-7-yl]carbonyl}-2,2-dimethylpropyl]-N4,N4-dimethylsuccinamide], the IC50 came out at 70 nM.
